“Also recorded” adds a separate entry of the source.
What was measured:
α1B-AR [1] = target: T1, α1B-AR (Homo sapiens, UniProt P35368); assay: Competition binding with [125I]HEAT at α1B-AR
T1 construct: expressed in transfected cells; host or cells: Rat-1 fibroblast cells
T1 sequence (P35368 1-520): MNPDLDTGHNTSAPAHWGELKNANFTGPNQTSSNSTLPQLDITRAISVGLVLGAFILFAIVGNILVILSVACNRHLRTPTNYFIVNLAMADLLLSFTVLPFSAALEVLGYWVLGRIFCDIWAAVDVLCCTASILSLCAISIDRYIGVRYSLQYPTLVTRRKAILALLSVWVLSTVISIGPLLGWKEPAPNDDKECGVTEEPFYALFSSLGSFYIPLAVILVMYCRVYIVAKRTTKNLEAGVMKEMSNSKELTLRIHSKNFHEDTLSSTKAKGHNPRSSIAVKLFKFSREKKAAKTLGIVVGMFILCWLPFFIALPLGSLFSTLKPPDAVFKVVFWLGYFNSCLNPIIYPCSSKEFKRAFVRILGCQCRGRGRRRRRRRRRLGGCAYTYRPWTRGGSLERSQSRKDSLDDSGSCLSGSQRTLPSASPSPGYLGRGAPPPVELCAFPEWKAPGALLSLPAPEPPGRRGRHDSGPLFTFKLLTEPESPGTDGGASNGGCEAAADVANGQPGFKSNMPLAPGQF
Description: (§1) Competition binding assays: These compounds were characterized for their ligand binding properties at the α1-AR subtypes. The binding affinities of Compounds 1-10 were determined in a series of competition-binding experiments with the α1-AR-selective antagonist [^125I]HEAT as the radioligand. Assays were performed in duplicate in HEM buffer, in a total assay volume of 1000 μl. Radioligand binding assays are composed of 5 ug of membranes, harvested from Rat-1 fibroblast cells expressing only one of the alpha1-AR subtypes, HEM buffer containing GTP (composed of 20 mM HEPES, pH 7.4, 1.4 mM EGTA, 12.5 mM MgCl2, pH to 7.4), 0.5 mM GTP, 35-80 pM^125I-HEAT, and various doses of norepinephrine or epinephrine and incubated with shaking at 25° C. for 1-2 hours. The above conditions will convert all the conformations of the receptor into a single low affinity site. To show both high and low affinity sites of the receptor (typically seen with GPCR agonists), the GTP is removed from the binding buffer. Nonspecific binding was determined experimentally in the presence of 10^−4 M phentolamine. Unbound radioactivity was separated from membrane-bound radioactivity by filtration through Whatman GF/C filter paper. […] Bound radioactivity remaining on the filters was counted on an ICN gamma counter operating at 79.8% efficiency. Data are analyzed using Graphpad Prism.

α1D-AR = target: T2, α1D-AR (Homo sapiens, UniProt P25100); assay: Competition binding with [125I]HEAT at α1D-AR
T2 construct: expressed in transfected cells; host or cells: Rat-1 fibroblast cells
T2 sequence (P25100 1-572): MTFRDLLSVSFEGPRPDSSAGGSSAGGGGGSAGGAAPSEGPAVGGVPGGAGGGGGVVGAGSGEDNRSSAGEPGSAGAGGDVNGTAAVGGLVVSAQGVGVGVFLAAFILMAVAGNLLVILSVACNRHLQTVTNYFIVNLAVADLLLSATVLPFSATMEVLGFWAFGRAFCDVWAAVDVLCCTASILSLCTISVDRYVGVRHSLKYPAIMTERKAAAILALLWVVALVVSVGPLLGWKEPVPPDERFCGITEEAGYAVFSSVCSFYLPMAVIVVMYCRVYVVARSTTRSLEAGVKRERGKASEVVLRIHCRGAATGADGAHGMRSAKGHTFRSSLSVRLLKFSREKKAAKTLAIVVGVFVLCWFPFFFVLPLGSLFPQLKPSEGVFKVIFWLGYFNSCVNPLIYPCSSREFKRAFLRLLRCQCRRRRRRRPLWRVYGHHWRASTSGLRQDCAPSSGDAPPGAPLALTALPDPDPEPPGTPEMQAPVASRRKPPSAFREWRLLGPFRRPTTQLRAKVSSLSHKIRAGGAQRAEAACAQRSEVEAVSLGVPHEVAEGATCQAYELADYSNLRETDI
Description: as §1

α1B-AR [2] = target: T1, α1B-AR; assay: cAMP assay at α1B-AR; assay type: cell-based
Description: cAMP assay: Cells expressing a single α1-adrenergic receptor subtype are washed and re-plated into 24-well plates in DMEM media without serum at approximately 2.4×10^4 cells/well. Cells are allowed to rest till the next day in a CO2 incubator at 37° C. The cells are washed twice with DMEM (no serum), then 1 ml of DMEM is added to each well. Cells are pre-incubated for 45 mins-1 hour at 37° C. in a CO2 incubator with 10 uM propranolol, followed by 100 uM IBMX for 30 minutes. Final DMSO concentration is at 0.05%. Norepinephrine or epinephrine is added in a dose response (1 dose per well) in addition to one of the Compounds 1-10 at one concentration (i.e. 10^−5M). Cells are incubated for another 30 mins at 37° C. in a CO2 incubator. The reaction is concluded by aspirating the media and adding 0.1M HCL. The mixture is incubated for 20 mins at room temperature. The cells are scraped and suspended until homogenous. The mixture is centrifuged at 1000 g for 10 mins and the supernatant assayed the same day according to a manufacturer's cAMP kit (Cayman Select Cyclic AMP EIA kit #501040).

[3] = tested on: 3×TG Alzheimer's Disease (AD) mouse model; assay: Smart Cage locomotor activity in AD mice; assay type: in vivo; settings: 48 hours
α1A-AR = target: T3, α1A-AR (Homo sapiens, UniProt P35348); assay: Effect of compound on binding affinity of norepinephrine, epinephrine or other ligands at α1A-AR; parameters: expressed in transfected cells; host or cells: Rat-1 fibroblast cells
T3 sequence (P35348 1-466): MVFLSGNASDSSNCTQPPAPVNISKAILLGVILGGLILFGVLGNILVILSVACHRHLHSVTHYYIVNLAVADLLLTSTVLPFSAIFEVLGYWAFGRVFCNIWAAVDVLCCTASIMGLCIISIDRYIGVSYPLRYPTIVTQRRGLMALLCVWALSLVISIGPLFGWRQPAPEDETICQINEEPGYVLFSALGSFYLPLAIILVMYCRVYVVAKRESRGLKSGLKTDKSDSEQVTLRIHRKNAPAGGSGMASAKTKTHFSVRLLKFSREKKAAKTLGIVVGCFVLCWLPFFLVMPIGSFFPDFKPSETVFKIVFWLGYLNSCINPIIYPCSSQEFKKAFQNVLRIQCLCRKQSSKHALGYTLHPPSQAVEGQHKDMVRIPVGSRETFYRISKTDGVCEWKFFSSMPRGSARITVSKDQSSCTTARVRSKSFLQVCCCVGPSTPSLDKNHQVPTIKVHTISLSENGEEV

CC(C)Cc1c(OCC2=NCCN2)cccc1N(C)S(C)(=O)=O [Compound 3, N-[3-(4,5-Dihydro-1H-imidazol-2-ylmethoxy)-2-isobutyl-phenyl]-N-methyl-methanesulfonamide]
specific binding at the α1B-AR (α1B-AR [1]): little, if any, specific binding; also recorded: no affinity | specific binding at the α1D-AR (α1D-AR): little, if any, specific binding; also recorded: no affinity | effect on norepinephrine cAMP response at the α1B-AR (α1B-AR [2]): no effect | locomotion assessed by amount of active time [3]: little effect on locomotion | locomotion assessed by velocity [3]: little effect on locomotion | effect on binding of phentolamine at the α1A-AR (α1A-AR; 10^−5M): no effect; also recorded: does not change the affinity | effect on binding of cirazoline at the α1A-AR (α1A-AR; 10^−5M and 10^−7M): does not affect; also recorded: no effect
